Like-named read-outs stand apart in the source and are kept apart here.
Experiments:
CYP2D6 = target: T1, CYP2D6 (Homo sapiens, UniProt P10635); experiment: Inhibition of CYP2D6 (dextromethorphan) activity in pooled human liver microsomes; format: in vitro ADME; conditions: substrate dextromethorphan 5 µM; pooled HLMs; read-out: IC50, P450 2D6
T1 construct: incubation mixtures containing pooled human liver microsomes (HLMs, XTreme 200, XenoTech); tissue XenoTech XTreme 200; host or cells: pooled human liver microsomes
T1 sequence (P10635 whole entry): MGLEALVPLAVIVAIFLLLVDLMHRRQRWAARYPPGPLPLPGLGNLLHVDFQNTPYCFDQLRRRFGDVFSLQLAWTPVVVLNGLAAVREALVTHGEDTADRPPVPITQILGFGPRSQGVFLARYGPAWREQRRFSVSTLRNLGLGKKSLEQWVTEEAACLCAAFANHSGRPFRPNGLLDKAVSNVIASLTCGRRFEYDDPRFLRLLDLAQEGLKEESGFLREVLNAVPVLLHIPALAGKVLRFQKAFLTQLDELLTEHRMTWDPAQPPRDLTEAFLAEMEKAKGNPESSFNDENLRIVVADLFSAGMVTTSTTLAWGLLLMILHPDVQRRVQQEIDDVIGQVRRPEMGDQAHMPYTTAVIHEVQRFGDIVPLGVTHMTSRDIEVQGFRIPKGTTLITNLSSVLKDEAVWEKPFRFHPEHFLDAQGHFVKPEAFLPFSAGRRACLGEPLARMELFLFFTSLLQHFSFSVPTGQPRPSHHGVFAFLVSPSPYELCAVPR
Protocol: The inhibitory potential of the five biflavonoids on the metabolism of nine P450 probe substrates was evaluated using previously developed methods with minor modifications. Biflavonoids were dissolved in methanol. The final concentration of methanol in the incubation mixture was 1.0% (v/v). We used these P450 probe substrates: phenacetin for CYP1A2, coumarin for CYP2A6, bupropion for CYP2B6, amodiaquine for CYP2C8, diclofenac for CYP2C9, omeprazole for CYP2C19, dextromethorphan for CYP2D6, chlorzoxazone for CYP2E1 and midazolam for CYP3A (Table 1). The incubation mixtures containing pooled human liver microsomes (HLMs, XTreme 200, XenoTech), P450 probe substrates, and inhibitor (0~20 µM) were pre-incubated at 37 °C for 5 min. The concentration range of the inhibitor varied (0, 0.002, 0.005, 0.02, 0.05, and 0.2 µM for CYP2C8; 0, 0.02, 0.05, 0.2, 0.5, and 2 µM for CYP2C9; 0, 0.5, 2, 5, 10, and 20 µM for other P450 isoforms). After pre-incubation, a reduced nicotinamide adenine dinucleotide phosphate (NADPH) generation system containing 1 unit/ml G6PDH, 1.3 mM β- nicotinamide adenine dinucleotide phosphate (β- NADP^+), 3.3 mM MgCl2, and 3.3 mM G6P was added to initiate a reaction, and further incubated for 10 min at 37 °C. The reaction was stopped by adding 50 μL of ice-cold acetonitrile containing 7 nM trimipramine (internal standard, IS). After centrifugation at 18,000 g (5 min, 4 °C), aliquots of supernatants were analyzed by LC–MS/MS (Shimadzu LCMS 8060 system, Shimadzu, Kyoto, Japan). All microsomal incubations were conducted in triplicate.
All metabolites and the IS were separated on a Kinetex XB-C18 column (100 × 2.10 mm, 2.6 μm, 100 Å; Phenomenex, Torrance, CA, USA) and analyzed using a Shimadzu LCMS 8060 triple-quadrupole mass spectrometer coupled with a Nexera X2 ultra high-performance liquid chromatography system (Shimadzu, Kyoto, Japan) equipped with an electrospray ionization interface. The mobile phase consisted of 0.1% formic acid in water (A) and 0.1% formic acid in acetonitrile (B). The elution condition was set as 8% B (0–0.5 min), 8%→60% B (0.5–5 min), 60% B (5–6 min), 60%→8% B (6–6.1 min) and 8% B (6.1–9 min) for the analysis of metabolites of P450 probe substrates and set as 0%→40% B (0–1 min), 40%→50% B (1–5 min), 50%→0% B (5–5.1 min), and 0% B (5.1–8 min) for the analysis of metabolites of UGT probe substrates. The flow rate was 0.2 mL/min. Electrospray ionization was performed in positive-ion mode at 4000 V or in negative-ion mode at −3500 V. The optimum operating conditions were determined as follows: vaporizer temperature, 300 °C; capillary temperature, 350 °C; collision gas (argon) pressure, 1.5 mTorr. Quantitation was conducted in selected reaction monitoring (SRM) modes with the precursor-to-product ion transition for each metabolite (Table 1 and Table 2).
We analyzed the data with Shimadzu LabSolution LC–MS software. The IC50 values were calculated by WinNonlin software (Pharsight, Mountain View, CA, USA). The type of inhibition and the apparent kinetic parameters for inhibitory activity (Ki) were determined by following several criteria: visual inspection of Dixon plots, Lineweaver–Burk double reciprocal plots, and secondary plots of Lineweaver–Burk plots versus biflavonoid concentrations, the size of the sum of squares of the residuals, Akaike Information Criteria values, the S.E. and 95% confidence interval of the parameter estimates from the nonlinear regression analysis using the WinNonlin software. The models tested included competitive, competitive partial, noncompetitive, noncompetitive partial, uncompetitive, uncompetitive partial, and mixed-type inhibition.

CYP3A = CYP3A (Homo sapiens, UniProt P08684); experiment: Inhibition of CYP3A-catalyzed midazolam 1'-hydroxylation in pooled human liver microsomes; format: in vitro ADME
CYP3A, sequence (P08684 2-503): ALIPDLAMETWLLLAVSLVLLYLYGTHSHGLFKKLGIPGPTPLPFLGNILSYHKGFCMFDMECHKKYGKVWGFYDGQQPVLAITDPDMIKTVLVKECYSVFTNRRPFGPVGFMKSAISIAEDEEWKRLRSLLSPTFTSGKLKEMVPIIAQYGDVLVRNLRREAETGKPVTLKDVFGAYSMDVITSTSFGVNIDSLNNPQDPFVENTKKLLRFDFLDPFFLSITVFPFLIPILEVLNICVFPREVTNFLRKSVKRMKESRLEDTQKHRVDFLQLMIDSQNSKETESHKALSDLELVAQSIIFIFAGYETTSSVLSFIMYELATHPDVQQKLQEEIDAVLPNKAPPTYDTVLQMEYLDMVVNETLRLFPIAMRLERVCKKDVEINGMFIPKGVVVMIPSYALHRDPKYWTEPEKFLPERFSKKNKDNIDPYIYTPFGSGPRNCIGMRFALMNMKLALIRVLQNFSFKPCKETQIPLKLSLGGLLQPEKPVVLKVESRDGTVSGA
Protocol: The inhibitory potential of the five biflavonoids on the metabolism of nine P450 probe substrates was evaluated using previously developed methods with minor modifications. Biflavonoids were dissolved in methanol. The final concentration of methanol in the incubation mixture was 1.0% (v/v). We used these P450 probe substrates: phenacetin for CYP1A2, coumarin for CYP2A6, bupropion for CYP2B6, amodiaquine for CYP2C8, diclofenac for CYP2C9, omeprazole for CYP2C19, dextromethorphan for CYP2D6, chlorzoxazone for CYP2E1 and midazolam for CYP3A (Table 1). […] The reaction was stopped by adding 50 μL of ice-cold acetonitrile containing 7 nM trimipramine (internal standard, IS). After centrifugation at 18,000 g (5 min, 4 °C), aliquots of supernatants were analyzed by LC-MS/MS (Shimadzu LCMS 8060 system, Shimadzu, Kyoto, Japan). All microsomal incubations were conducted in triplicate. We used HLMs to determine the mechanisms and constants (Ki values) for […] A inhibition of CYP1A2, CYP2B6, CYP2C8, CYP2C9 and CYP3A. […] The substrates were used at concentrations approximately near to their respective Km values. […] The other conditions were the same as in the cytochrome P450 inhibition study. […] Phenomenex, Torrance, CA, USA) and analyzed using a Shimadzu LCMS 8060 triple-quadrupole mass spectrometer coupled with a Nexera X2 ultra high-performance liquid chromatography system (Shimadzu, Kyoto, Japan) equipped with an electrospray ionization interface. The mobile phase consisted of 0.1% formic acid in water (A) and 0.1% formic acid in acetonitrile (B). […] The flow rate was 0.2 mL/min. Electrospray ionization was performed in positive-ion mode at 4000 V or in negative-ion mode at -3500 V. […] Quantitation was conducted in selected reaction monitoring (SRM) modes with the precursor-to-product ion transition for each metabolite (Table 1 and Table 2). We analyzed the data with Shimadzu LabSolution LC-MS software. The IC50 values were calculated by WinNonlin software (Pharsight, Mountain View, CA, USA). The type of inhibition and the apparent kinetic parameters for inhibitory activity (Ki) were determined by following several criteria: visual inspection of Dixon plots, Lineweaver-Burk double reciprocal plots, and secondary plots of Lineweaver-Burk plots versus biflavonoid concentrations, the size of the sum of squares of the residuals, Akaike Information Criteria values, the S.E. and 95% confidence interval of the parameter estimates from the nonlinear regression analysis using the WinNonlin software. The models tested included competitive, competitive partial, noncompetitive, noncompetitive partial, uncompetitive, uncompetitive partial, and mixed-type inhibition.

[1] = human, pooled human liver microsomes, probe midazolam (5 µM), substrate midazolam 5 µM, pooled HLMs, read-out: IC50, P450 3A

For CC(C)(O)c1ccccc1CC[C@@H](SCC1(CC(=O)O)CC1)c1cccc(/C=C/c2ccc3ccc(Cl)cc3n2)c1 [montelukast, reference compound], the IC50 (CYP2D6) was over 50000 nM and the IC50 at 10 min (CYP3A; human, microsomes) was over 50000 nM.
In the case of O=c1cc(-c2ccc(O)c(-c3c(O)cc(O)c4c(=O)cc(-c5ccc(O)cc5)oc34)c2)oc2cc(O)cc(O)c12 [amentoflavone], the IC50 (CYP2D6) is reported as 2600 nM and the IC50 at 10 min (CYP3A; human, microsomes) is reported as 1300 nM.
O=c1cc(-c2ccc(O)c(-c3c(-c4ccc(O)cc4)oc4cc(O)cc(O)c4c3=O)c2)oc2cc(O)cc(O)c12 [taiwaniaflavone] gave an IC50 (CYP2D6) of 3200 nM and an IC50 at 10 min (CYP3A; [1]) of 1200 nM.
With O=c1cc(-c2ccc(O)c(-c3c(O)cc4oc(-c5ccc(O)cc5)cc(=O)c4c3O)c2)oc2cc(O)cc(O)c12 [robustaflavone] the IC50 (CYP2D6) was 2200 nM and the IC50 at 10 min (CYP3A; [1]) was 1200 nM.
With O=C1CC(c2cc(-c3c(O)ccc4c(=O)cc(-c5ccc(O)cc5)oc34)c(O)cc2O)Oc2cc(O)cc(O)c21 (centres unmarked) [selamariscina A] the IC50 (CYP2D6) was 10600 nM, the “Mode of Inhibition, CYP3A midazolam” value (CYP3A; HLMs) was “Noncompetitive” and the IC50 at 10 min (CYP3A; [1]) was 2700 nM. It also gave a Ki at 10 min (CYP3A; human, pooled human liver microsomes, probe midazolam (0.5, 2, 5 μM), HLMs, average ± standard error, triplicate) of 4500 ± 500 nM.
With O=c1cc(-c2ccc(O)cc2)oc2c(-c3c(O)cc(O)c4c(=O)cc(-c5ccc(O)cc5)oc34)c(O)cc(O)c12 [cupressuflavone] the IC50 (CYP2D6) was 2700 nM and the IC50 at 10 min (CYP3A; [1]) was 1500 nM.

From paper PMC7238120, “Strong and Selective Inhibitory Effects of the Biflavonoid Selamariscina A against CYP2C8 and CYP2C9 Enzyme Activities in Human Liver Microsomes” (Pharmaceutics, 2020)
